We go through one molecule from patent US8664217B2, “Benzodiazepine compound and pharmaceutical composition” (Otsuka Pharmaceutical Co., Ltd., priority 2008, dated 2014).

The melting point is the temperature of the solid-liquid transition. With `CCN1C(=O)C(C)(C)C(=O)N(C)c2cc(OCCCN(CCc3cccnc3)C(=O)c3ccncc3)ccc21` [Example 459, N-[3-(1-ethyl-3,3,5-trimethyl-2,4-dioxo-2,3,4,5-tetrahydro-1H-benzo[b][1,4]diazepin-7-yloxy)propyl]-N-(2-pyridin-3-ylethyl)isonicotinamide], the melting point fell in the range of 88.1 to 92.2 °C.
